The results in this text go back to patent US11377442B2, “Small molecule agonists and antagonists of NR2F6 activity” (ZANDER THERAPEUTICS, INC., priority 2016, dated 2022).

This experiment addresses T1, NR2F6 (Homo sapiens, UniProt P10588).
T1 construct: expressed in transfected cells; also transient transfection
T1 sequence (P10588 1-404): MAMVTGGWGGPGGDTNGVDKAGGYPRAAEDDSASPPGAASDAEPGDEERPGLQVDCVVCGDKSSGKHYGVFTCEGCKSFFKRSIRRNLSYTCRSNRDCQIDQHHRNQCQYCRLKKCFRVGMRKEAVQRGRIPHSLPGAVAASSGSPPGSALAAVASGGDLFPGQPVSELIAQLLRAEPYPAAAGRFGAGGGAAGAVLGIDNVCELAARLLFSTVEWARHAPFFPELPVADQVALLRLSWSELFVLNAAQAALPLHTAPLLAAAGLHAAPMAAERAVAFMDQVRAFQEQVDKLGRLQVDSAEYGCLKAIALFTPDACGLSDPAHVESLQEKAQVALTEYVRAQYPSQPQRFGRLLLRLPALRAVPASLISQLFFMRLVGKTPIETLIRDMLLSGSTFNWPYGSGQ
In words: NR2F6 agonist screening, Firefly signal cmpd/DMSO. To be noted: for Firefly/Renilla (NR2F6 stable, clone F4): ratio Firefly/Renilla; for Firefly, NR2F6 stable (clone F4)/pGL4: ratio of Firefly in NR2F6 stable clone F4 to pGL4. Type of experiment: cell-based.

Where [1] appears, read: C11 analogs follow set (Tables 2-10).

Structures are written as SMILES.

For the compound `N#Cc1cccc(S(=O)(=O)c2cc3cc(Cl)ccc3oc2=O)c1` [Compound C195], under setting [1], the “Firefly, cmpd/DMSO repeat 1” value was found to be 38.7 and the “Firefly, cmpd/DMSO repeat 2” value is listed as 29.4. In addition, where the note is “Table 12”, the “Firefly/Renilla (NR2F6 stable, clone F4)” value is reported as 2.1; the “Firefly, NR2F6 stable (clone F4)/pGL4” value is 7.7; the “Firefly, cmpd/DMSO repeat 1” value was 38.7; the “Firefly, cmpd/DMSO repeat 2” value stood at 29.4.
Take `N#Cc1cccc(S(=O)(=O)c2cc3cc(Br)ccc3oc2=O)c1` [Compound C196]: under setting [1], the “Firefly, cmpd/DMSO repeat 1” value came to 3.8 and the “Firefly, cmpd/DMSO repeat 2” value was determined as 3.4.
As to `Cc1ccc(S(=O)(=O)c2cc3cc(Br)ccc3oc2=O)cc1` [Compound C197], under setting [1], the “Firefly, cmpd/DMSO repeat 1” value worked out at 17.6 and the “Firefly, cmpd/DMSO repeat 2” value worked out at 14.8. Also, for the setting “Table 13”, the “Firefly/Renilla (NR2F6 stable, clone F4)” value stood at 1.1; the “Firefly, NR2F6 stable (clone F4)/pGL4” value was 6.3; the “Firefly, cmpd/DMSO repeat 1” value came out at 17.6; the “Firefly, cmpd/DMSO repeat 2” value came out at 14.8.
Consider `O=c1oc2ccc(Br)cc2cc1S(=O)(=O)c1ccc(F)cc1` [Compound C198], for which, under setting [1], the “Firefly, cmpd/DMSO repeat 1” value worked out at 1.0 and the “Firefly, cmpd/DMSO repeat 2” value worked out at 0.8.
The like results for `COc1ccc(S(=O)(=O)c2cc3cc(Br)ccc3oc2=O)cc1` [Compound C199] were, in that order, 19.3 and 16.1.
On to `CC(C)(C)c1ccc(S(=O)(=O)c2cc3cc(Br)ccc3oc2=O)cc1` [Compound C200], for which, under setting [1], the “Firefly, cmpd/DMSO repeat 1” value is 11.0 and the “Firefly, cmpd/DMSO repeat 2” value is on record as 8.1. Also, where the note is “Table 13”, the “Firefly/Renilla (NR2F6 stable, clone F4)” value stood at 1.2; the “Firefly, NR2F6 stable (clone F4)/pGL4” value amounted to 5.4; the “Firefly, cmpd/DMSO repeat 1” value is recorded as 11.0; the “Firefly, cmpd/DMSO repeat 2” value was 8.1.
On to `O=c1oc2ccc(Cl)cc2cc1S(=O)(=O)c1ccccc1` [Compound C201], for which, under setting [1], the “Firefly, cmpd/DMSO repeat 1” value stood at 6.1 and the “Firefly, cmpd/DMSO repeat 2” value was determined as 5.3.
`Cc1ccc(S(=O)(=O)c2cc3cc(Cl)ccc3oc2=O)cc1` [Compound C202]: under setting [1], the “Firefly, cmpd/DMSO repeat 1” value is 15.7 and the “Firefly, cmpd/DMSO repeat 2” value was determined as 14.1. In addition, for the setting “Table 12”, the “Firefly/Renilla (NR2F6 stable, clone F4)” value was 1.7; the “Firefly, NR2F6 stable (clone F4)/pGL4” value amounted to 6.1; the “Firefly, cmpd/DMSO repeat 1” value turned out to be 15.7; the “Firefly, cmpd/DMSO repeat 2” value was found to be 14.1.
Regarding `COc1ccc(S(=O)(=O)c2cc3cc(Cl)ccc3oc2=O)cc1` [Compound C203], under setting [1], the “Firefly, cmpd/DMSO repeat 1” value was 9.5 and the “Firefly, cmpd/DMSO repeat 2” value came to 15.5.
For `O=c1oc2ccc(Cl)cc2cc1S(=O)(=O)c1ccc(Br)cc1` [Compound C204] the same measures were 5.0 and 5.8.
The like results for `CC(C)(C)c1ccc(S(=O)(=O)c2cc3cc(Cl)ccc3oc2=O)cc1` [Compound C205] were, in that order, 6.9 and 6.0.
`COc1ccc2oc(=O)c(S(=O)(=O)c3ccccc3)cc2c1` [Compound C206]: under setting [1], the “Firefly, cmpd/DMSO repeat 1” value came to 2.1 and the “Firefly, cmpd/DMSO repeat 2” value amounted to 1.8.
For `COc1ccc(S(=O)(=O)c2cc3cc(OC)ccc3oc2=O)cc1` [Compound C207] the same measures were 2.5 and 2.8.
Turning to `COc1ccc2oc(=O)c(S(=O)(=O)c3ccc(Br)cc3)cc2c1` [Compound C208], under setting [1], the “Firefly, cmpd/DMSO repeat 1” value turned out to be 0.8 and the “Firefly, cmpd/DMSO repeat 2” value worked out at 0.9.
Consider `COc1ccc2oc(=O)c(S(=O)(=O)c3ccc(C(C)(C)C)cc3)cc2c1` [Compound C209], for which, under setting [1], the “Firefly, cmpd/DMSO repeat 1” value is given as 3.1 and the “Firefly, cmpd/DMSO repeat 2” value turned out to be 4.2. Also, where the note is “Table 13”, the “Firefly/Renilla (NR2F6 stable, clone F4)” value amounted to 3.6; the “Firefly, NR2F6 stable (clone F4)/pGL4” value is given as 3.1; the “Firefly, cmpd/DMSO repeat 1” value came to 3.1; the “Firefly, cmpd/DMSO repeat 2” value is 4.2.
Regarding `O=c1oc2ccc([N+](=O)[O-])cc2cc1S(=O)(=O)c1ccccc1` [Compound C210], under setting [1], the “Firefly, cmpd/DMSO repeat 1” value is recorded as 22.8 and the “Firefly, cmpd/DMSO repeat 2” value came to 14.3. Besides, where the note is “Table 13”, the “Firefly/Renilla (NR2F6 stable, clone F4)” value was 1.5; the “Firefly, NR2F6 stable (clone F4)/pGL4” value is listed as 8.2; the “Firefly, cmpd/DMSO repeat 1” value is 22.8; the “Firefly, cmpd/DMSO repeat 2” value stood at 14.3.
For `Cc1ccc(S(=O)(=O)c2cc3cc([N+](=O)[O-])ccc3oc2=O)cc1` [Compound C211], under setting [1], the “Firefly, cmpd/DMSO repeat 1” value is listed as 5.8 and the “Firefly, cmpd/DMSO repeat 2” value is 17.7.
For the compound `O=c1oc2ccc(F)cc2cc1S(=O)(=O)c1ccccc1` [Compound C212], under setting [1], the “Firefly, cmpd/DMSO repeat 1” value was found to be 1.7 and the “Firefly, cmpd/DMSO repeat 2” value amounted to 1.9.
Regarding `O=c1oc2ccc(F)cc2cc1S(=O)(=O)c1ccc(F)cc1` [Compound C213], under setting [1], the “Firefly, cmpd/DMSO repeat 1” value is reported as 14.0 and the “Firefly, cmpd/DMSO repeat 2” value is given as 13.6. Further, for the setting “Table 13”, the “Firefly/Renilla (NR2F6 stable, clone F4)” value was found to be 1.6; the “Firefly, NR2F6 stable (clone F4)/pGL4” value came to 9.6; the “Firefly, cmpd/DMSO repeat 1” value is listed as 14.0; the “Firefly, cmpd/DMSO repeat 2” value is given as 13.6.
With `COc1ccc(S(=O)(=O)c2cc3cc(F)ccc3oc2=O)cc1` [Compound C214], under setting [1], the “Firefly, cmpd/DMSO repeat 1” value is 1.9 and the “Firefly, cmpd/DMSO repeat 2” value turned out to be 1.9.
Regarding `O=c1oc2ccc(F)cc2cc1S(=O)(=O)c1ccc(Br)cc1` [Compound C215], under setting [1], the “Firefly, cmpd/DMSO repeat 1” value is listed as 11.6 and the “Firefly, cmpd/DMSO repeat 2” value stood at 13.8.
The like results for `CC(C)(C)c1ccc(S(=O)(=O)c2cc3cc(F)ccc3oc2=O)cc1` [Compound C216] were, in that order, 1.3 and 1.0.
Consider `Cc1cc(S(=O)(=O)c2cc3cc(F)ccc3oc2=O)ccc1F` [Compound C217], for which, under setting [1], the “Firefly, cmpd/DMSO repeat 1” value is 1.8 and the “Firefly, cmpd/DMSO repeat 2” value turned out to be 1.4.
Take `O=c1oc2ccc(F)cc2cc1S(=O)(=O)c1ccc(Cl)cc1` [Compound C218]: under setting [1], the “Firefly, cmpd/DMSO repeat 1” value is reported as 18.2 and the “Firefly, cmpd/DMSO repeat 2” value was determined as 19.1. For the same compound, under “Table 12”, the “Firefly/Renilla (NR2F6 stable, clone F4)” value was determined as 1.7; the “Firefly, NR2F6 stable (clone F4)/pGL4” value is 9.5; the “Firefly, cmpd/DMSO repeat 1” value came out at 18.2; the “Firefly, cmpd/DMSO repeat 2” value was 19.1.
With `O=c1oc2ccc(Br)cc2cc1S(=O)(=O)c1ccccc1F` [Compound C219], under setting [1], the “Firefly, cmpd/DMSO repeat 1” value came out at 1.3 and the “Firefly, cmpd/DMSO repeat 2” value worked out at 2.5.
On to `O=c1oc2ccc(Cl)cc2cc1S(=O)(=O)c1ccccc1F` [Compound C220], for which, under setting [1], the “Firefly, cmpd/DMSO repeat 1” value turned out to be 10.4 and the “Firefly, cmpd/DMSO repeat 2” value was determined as 6.5. Besides, under “Table 13”, the “Firefly/Renilla (NR2F6 stable, clone F4)” value came out at 1.1; the “Firefly, NR2F6 stable (clone F4)/pGL4” value was 6.2; the “Firefly, cmpd/DMSO repeat 1” value stood at 10.4; the “Firefly, cmpd/DMSO repeat 2” value was determined as 6.5.
As for `COc1ccc2oc(=O)c(S(=O)(=O)c3ccccc3F)cc2c1` [Compound C221], under setting [1], the “Firefly, cmpd/DMSO repeat 1” value was 1.3 and the “Firefly, cmpd/DMSO repeat 2” value was determined as 0.9.
Regarding `COc1ccc2oc(=O)c(S(=O)(=O)c3cccc(Cl)c3)cc2c1` [Compound C222], under setting [1], the “Firefly, cmpd/DMSO repeat 1” value is 4.5 and the “Firefly, cmpd/DMSO repeat 2” value is 3.7. For the same compound, under “Table 13”, the “Firefly/Renilla (NR2F6 stable, clone F4)” value worked out at 2.0; the “Firefly, NR2F6 stable (clone F4)/pGL4” value came out at 3.6; the “Firefly, cmpd/DMSO repeat 1” value came out at 4.5; the “Firefly, cmpd/DMSO repeat 2” value was 3.7.
